Laboratory results taken from PMC6682311 (ChemMedChem, 2019).

Legend:
[1] = test system: M. smegmatis mc^2155 (ATCC 700084); assay: Broth microdilution determination of minimum inhibitory concentrations; assay type: cell-based, Mycobacterium smegmatis
in vitro [2] = settings: mouse, plasma, pH 7.4
[3] = Microsome stability assay; settings: male, CD-1, mouse, microsomes, pH 7.4
M. smegmatis biofilms [4] = assay: Biofilm inhibition assay; assay type: cell-based, Mycobacterium smegmatis
M. smegmatis biofilms [5] = assay: Synergy dispersion assay of compound with INH/RIF on pre-formed biofilms; assay type: cell-based, Mycobacterium smegmatis; settings: INH 256 + RIF 128 µg mL^−1
in vitro [6] = settings: male, CD-1, mouse, microsomes, pH 7.4
[7] = Table 3, trifluoromethyl 2-AIs, no unit printed for these values

Row | SMILES | MIC [1, 7] | half-life at 100 µM (in vitro [2]) | half-life at 100 µM [3] | fold reduction in EC50 with antibiotics versus compound alone (M. smegmatis biofilms [5]) | also measured
1 | CCCCCOc1ccc(-c2nc(N)[nH]c2C(F)(F)F)cc1 [Compound 12j, 4-(4-(Pentyloxy)phenyl)-5-(trifluoromethyl)-1H-imidazol-2-amine] | 200 | 4.8 h | 1.02 h | four-fold reduction | IC50 (M. smegmatis biofilms [4]; Table 3): 7.4 ± 0.6 µM
2 | CCCCOc1ccc(-c2nc(N)[nH]c2C(F)(F)F)cc1 [Compound 12i, 4-(4-Butoxyphenyl)-5-(trifluoromethyl)-1H-imidazol-2-amine] | 200 | – | – | – | –
3 | CCCCCCc1ccc(-c2nc(N)[nH]c2C(F)(F)F)cc1 [Compound 12g, 4-(4-Hexylphenyl)-5-(trifluoromethyl)-1H-imidazol-2-amine] | – | 4.43 h | 0.978 h | three-fold reduction | MIC ([1]; Table 2, 4,5 substituted 2-AIs, unit printed in text b20 only): >200 µM; IC50 (M. smegmatis biofilms [4]; Table 2, highest concentration tested 50 µM): 6.8 ± 0.9 µM
4 | CC(C)NCC(O)COc1cccc2ccccc12 (centres unmarked) [Propanolol, reference compound] | – | 0.343 h | – | – | –
5 | CCCOc1ccc(-c2nc(N)[nH]c2C(F)(F)F)cc1 [Compound 12h, 4-(4-Propoxyphenyl)-5-(trifluoromethyl)-1H-imidazol-2-amine] | 200 | – | – | – | –
6 | CCOc1ccc(NC(C)=O)cc1 [Phenacetin] | – | – | – | – | half-life at 100 µM (in vitro [6]): 0.59 h
